From patent publication US20180264088A1, “USE OF CREATINE KINASE AND DERIVED PEPTIDES THEREOF TO RELIEVE PAIN” (CENTRE NATIONAL DE LA RECHERCHE SCIENTIFIQUE, priority 2015, published 2018)

What was measured:
CK-M = CK-M (Homo sapiens, UniProt P06732); assay: Inhibitory effect of morphine on ATP formation by creatine kinase; format: biochemical; settings: ratio 3n/1n (FIG. 2)
C57Bl/6J mice = assay: Intrathecal injection, mechanical nociceptive thresholds of healthy mice, von Frey filaments; format: in vivo; settings: for analgesia (mechanical nociceptive threshold vs control): right leg, two-ways ANOVA
Method: (§1) Experiments were performed on adult male C57Bl/6J mice (6 weeks old, Charles River, L'Arbresle, France). Animals were housed in groups of 3, under standard conditions (room temperature: 22° C.; 12/12-hour light-dark cycle) with ad libitum access to food and water. All experiments were conducted according to the recommendations of the European Committee Council Direction of Sep. 22, 2010 (2010/63/EU).
The functional properties of peptides P1 (20 nmoles) and P4 (10 nmoles) were evaluated through injections in the spinal cord of 4 groups of 6 mice C57B16/J (intrathecal injection, volume of 5 μl). […] Mice were previously placed under gaseous anesthesia with isoflurane (volatile anesthetic agent) with a minimum alveolar concentration (MAC) of 1.34%. A 27-gauge needle connected to a syringe was inserted between the vertebrae L5 and L6, in the subarachnoid space. Isoflurane induced a general anesthesia with respiratory depression in mice.
(§2) The mechanical threshold for hind paw withdrawal was determined using Von Frey hairs. Mice were placed in clear plexiglass boxes on an elevated mesh screen. Von Frey filaments (Bioseb, Chaville, France) were applied to the plantar surface of each hind paw in a series of ascending forces (0.4 g-15 g). Filaments were tested 5 times per paw, and the mechanical threshold was defined as 3 or more withdrawals out of the 5 trials. Lithium chloride and naloxone (Sigma-Aldrich, St. Louis, U.S.A.) were diluted in NaCl 0.9% (w/v).

[1] = tested on: C57Bl/6J neuropathic mice; assay: Intraperitoneal injection, mechanical nociceptive thresholds of neuropathic (cuffed) mice, von Frey filaments; format: in vivo; settings: 10 nmoles; for effect on mechanical thresholds of Sham animals: Sham mice
Method: as §1, with “5,” for “3,”
(§3) All surgeries were done under aseptic conditions and ketamine/xylazine anaesthesia (ketamine: 17 mg/ml, xylazine: 2.5 mg/ml, i.p., 4 ml/kg, i.p.; Centravet, Taden, France). The right sciatic nerve was cuffed with a section of polyethylene tubing (cuff group) as previously described [Mosconi et Kruger, Pain, 64(1): 37-57, 1996] [7].
as §2, with “trials.” for “trials. Lithium chloride and naloxone (Sigma-Aldrich, St. Louis, U.S.A.) were diluted in NaCl 0.9% (w/v).”

cuffed mice C57Bl6/J [2] = assay: Intrathecal injection of AI-25, mechanical nociceptive threshold of cuffed mice; format: in vivo; settings: 10 nmoles
Method: (§4) Experiments and surgeries were performed as previously described.
(§5) The functional property of peptide AI-25 (10 nmoles) was evaluated through injections in the spinal cord of 8 mice C57B16/J (intrathecal injection, volume 5 μl). The aim was to study the consequences of these injections on mechanical nociceptive threshold of cuffed mice using the calibrated forceps test.
(§6) The mechanical threshold for hind paw withdrawal was determined using Von Frey filaments as previously described.

cuffed mice C57Bl6/J [3] = assay: Intrathecal injection of KN-50, mechanical nociceptive threshold of cuffed mice; format: in vivo; settings: 33 nmoles, vs saline solution
Method: as §4
as §5, with “KN-50 (33” for “AI-25 (10”, “nmoles) and NaCl 0.9%” for “nmoles)”, “mice, in comparison of saline solution.” for “mice using the calibrated forceps test.”
as §6

[4] = ELISA on peptide-coated plate: affinity for morphine; settings: ligand 300 μM to 0.1 μM
[5] = tested on: cuffed rats (neuropathic); assay: Intrathecal injection, cuff neuropathic rat model, calibrated forceps test; format: in vivo; settings: 10 nmoles
Method: as §1, with “Wistar at” for “C57Bl/6J mice”, “(2010/63/EU). Procedures were positively evaluated by the regional ethical committee, and experiments were conducted with an official authorization for animal experimentation from the French Department of Agriculture (license 67-116 to P.P.).” for “(2010/63/EU).”
as §3, with “[7]. Sham-operated mice underwent the same surgical procedure as cuffed animals without implantation of the cuff (sham group).” for “[7].”
The functional property of peptide P4 (10 nmoles) was evaluated through injections in the spinal cord of 1 groups of 3 rats (intrathecal injection, volume of 5 μl). The aim was to study the consequences of these injections on mechanic nociceptive threshold of cuffed animals in comparison of the sham group (control), using the calibrated forceps test. Rats were previously placed under gaseous anesthesia with isoflurane (volatile anesthetic agent) with a minimum alveolar concentration (MAC) of 1.34%. A 27-gauge needle connected to a syringe was inserted between the vertebrae L5 and L6, in the subarachnoid space.
The mechanical response was evaluated using digital calibrated forceps (Bioseb, Chaville, France) according to company's recommendations, before and 1 to 6 hours after intrathecal injections.

[6] = intrathecal, 10 nmoles, healthy mice
[7] = neuropathic mice, comparison to baseline
[8] = intrathecal, 20 nmoles, healthy mice

Chain of CK-M (P06732 whole entry, species assumed): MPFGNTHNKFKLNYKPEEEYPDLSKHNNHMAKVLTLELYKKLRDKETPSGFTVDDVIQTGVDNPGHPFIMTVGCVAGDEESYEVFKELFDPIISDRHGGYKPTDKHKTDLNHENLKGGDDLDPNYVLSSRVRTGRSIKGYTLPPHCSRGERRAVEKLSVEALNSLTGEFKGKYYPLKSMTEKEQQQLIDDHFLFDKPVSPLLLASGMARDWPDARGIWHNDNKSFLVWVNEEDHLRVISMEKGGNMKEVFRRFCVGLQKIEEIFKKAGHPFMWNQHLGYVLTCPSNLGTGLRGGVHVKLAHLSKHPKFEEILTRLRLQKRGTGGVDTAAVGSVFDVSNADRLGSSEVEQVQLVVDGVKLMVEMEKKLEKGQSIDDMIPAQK

CN1CC[C@]23c4c5ccc(O)c4O[C@H]2[C@@H](O)C=C[C@H]3[C@H]1C5 [morphine, reference compound]
inhibition of enzymatic activity of CK (production of ATP from phosphocreatine) (CK-M): ~18%
analgesia on right leg 4 hours after injection (C57Bl/6J mice; intrathecal, 10 nmoles, healthy mice, Holm-Sidak): significant analgesia
analgesia (mechanical nociceptive threshold vs control) (C57Bl/6J mice; [6]): induced a significant analgesia
effect on mechanical thresholds of Sham animals [1]: No significant effect
analgesic effect, ipsilateral paw, at 3 h [1, 7]: significant analgesic effect

peptide AI-25: peptide derived from P4, amino acids 214-238 (SEQ ID NO: 4) of mouse creatine kinase B
neuropathic pain, ipsilateral paw mechanical threshold (cuffed mice C57Bl6/J [2]): reversed the neuropathic pain
non-cuffed contralateral paw mechanical threshold (cuffed mice C57Bl6/J [2]): did not significantly affect
neuropathic pain, ipsilateral paw mechanical threshold (cuffed mice C57Bl6/J [2]; listed as amino acids 214-238): present analgesic activity

peptide KN-50: peptide derived from P4, amino acids 196-246 (SEQ ID NO: 5) of mouse creatine kinase B
neuropathic pain, ipsilateral paw mechanical threshold (cuffed mice C57Bl6/J [3]): reversed the neuropathic pain
non cuffed contralateral paw mechanical threshold (cuffed mice C57Bl6/J [3]): did not affect
neuropathic pain, ipsilateral paw mechanical threshold (cuffed mice C57Bl6/J [3]; listed as amino acids 196-246): present analgesic activity

peptide P1: peptide consisting of amino acids 1-75 (SEQ ID NO: 2) from the mouse CK-B sequence SEQ ID NO: 1
values of von Frey / sensitivity towards mechanical stimulation (C57Bl/6J mice; [8]): close or equal to cut-off
analgesia (mechanical nociceptive threshold vs control) (C57Bl/6J mice; [8]): induced a significant analgesia
values of von Frey / sensitivity towards mechanical stimulation (C57Bl/6J mice; intrathecal, 20 nmoles, healthy mice, listed as amino acids 1-75): almost complete insensitivity
occlusion of analgesic activity by morphine (C57Bl/6J mice; peptide 20 nmoles injected in presence of 10 nmoles of morphine): occlusion of analgesic activity
affinity for morphine [4]: showed an affinity

peptide P4: peptide consisting of amino acids 184-258 (SEQ ID NO: 3) of the mouse CK-B sequence SEQ ID NO: 1
values of von Frey / sensitivity towards mechanical stimulation (C57Bl/6J mice; [6]): close or equal to cut-off
analgesia (mechanical nociceptive threshold vs control) (C57Bl/6J mice; [6]): induced a significant analgesia
values of von Frey / sensitivity towards mechanical stimulation (C57Bl/6J mice; intrathecal, 10 nmoles, healthy mice, listed as amino acids 184-258): almost complete insensitivity
occlusion of analgesic activity by morphine (C57Bl/6J mice; peptide 10 nmoles injected in presence of 10 nmoles of morphine): not observed
neuropathic pain, ipsilateral paw mechanical threshold ([5]; cuffed rats): reverses the neuropathic pain
non-cuffed contralateral paw mechanical threshold ([5]; cuffed rats): did not affect
duration of analgesia ([5]; cuffed rats, ipsilateral paw): at least 6 h
neuropathic pain, ipsilateral paw mechanical threshold ([5]; cuffed rats, listed as peptide 4): reversed the neuropathic pain
mechanical threshold of the sham group ([5]; sham rats): did not affect
effect on mechanical thresholds of Sham animals [1]: No significant effect
basic mechanical nociceptive thresholds of the contralateral hind legs ([1]; neuropathic mice): do not modify
analgesic effect, ipsilateral paw, at 3 h [1, 7]: significant analgesic effect
analgesic effect, ipsilateral paw, at 4 h post injection [1, 7]: significant analgesic effect
affinity for morphine [4]: showed an affinity
